From patent publication US7816353B2 (Exelixis, Inc., priority 2003, dated 2010)

What follows are compounds tested against T1, p70S6K (Homo sapiens, UniProt P23443, T412E) (assay: p70S6 Kinase Assay (Luciferase-Coupled Chemiluminescent Kinase assay, LCCA)). Conditions: human p70S6 kinase domain residues 1-421, T412E; 5 μM ATP; read-out: p70S6K IC50.
T1 construct: human p70S6 kinase domain residues 1-421, containing a T412E mutation; made in house
T1 sequence (P23443 1-421 T412E): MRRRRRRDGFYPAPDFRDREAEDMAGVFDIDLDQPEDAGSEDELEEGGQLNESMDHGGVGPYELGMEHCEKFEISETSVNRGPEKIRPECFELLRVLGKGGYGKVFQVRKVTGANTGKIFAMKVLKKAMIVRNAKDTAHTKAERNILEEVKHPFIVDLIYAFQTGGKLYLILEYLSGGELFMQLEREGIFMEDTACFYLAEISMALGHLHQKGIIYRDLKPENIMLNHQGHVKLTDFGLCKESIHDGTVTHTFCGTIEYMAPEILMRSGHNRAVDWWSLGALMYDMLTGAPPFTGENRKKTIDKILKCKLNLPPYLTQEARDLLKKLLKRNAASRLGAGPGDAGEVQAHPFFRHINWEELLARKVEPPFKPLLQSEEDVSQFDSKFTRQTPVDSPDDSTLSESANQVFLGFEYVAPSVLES
Type: biochemical
Experimental: Kinase activity and compound inhibition are investigated using one or more of the three assay formats described below. The ATP concentrations for each assay are selected to be close to the Michaelis-Menten constant (KM) for each individual kinase. Dose-response experiments are performed at 10 different inhibitor concentrations in a 384-well plate format. […] Y=Min+(Max−Min)/(1+(X/IC50)^H) Equation (2) p70S6 Kinase Assay
Biochemical activity of p70S6 kinase was assessed using a Luciferase-Coupled Chemiluminescent Kinase assay (LCCA) format. Kinase activity was measured as the percent ATP remaining following the kinase reaction. Remaining ATP was detected by luciferase-luciferin-coupled chemiluminescence. […] The mixture is incubated at ambient temperature for 2 hours after which 20 μL luciferase-luciferin mix is added and the chemiluminescent signal read using a Wallac Victor^2 reader.
Work on `CSc1nc(N)nc(N[C@@H](C)C(=O)Nc2cccc(C(=O)N3CCN(C)CC3)c2)c1C#N` [Example 82, N^2-[2-amino-5-cyano-6-(methylthio)pyrimidin-4-yl]-N-{3-[(4-methylpiperazin-1-yl)carbonyl]phenyl}-L-alaninamide] yielded an IC50 greater than 2 µM.
Compound `CCOc1nc(N)nc(N[C@@H](C)C(=O)Nc2cc(OCCN(C)C)cc(C(F)(F)F)c2)c1C#N` [Example 180, N~2~-[2-amino-5-cyano-6-(ethyloxy)pyrimidin-4-yl]-N-[3-{[2-(dimethylamino)ethyl]oxy}-5-(trifluoromethyl)phenyl]-L-alaninamide] has an IC50 greater than 2 µM.
`CSc1nc(N)nc(NCC(=O)Nc2cccc(C(F)(F)F)c2)c1/C=N/O` [Example 59, N^2-[2-amino-5-[(E)-(hydroxymino)methyl]-6-(methylthio)pyrimidin-4-yl]-N-[3-(trifluoromethyl)phenyl]glycinamide] was tested, and the IC50 was 0.5 to 2 µM.
With `Cc1nc2oc(C(=O)Nc3cccc(C(F)(F)F)c3)c(N)c2c(C)c1[N+](=O)[O-]` [Example 98, 3-amino-4,6-dimethyl-5-nitro-N-[3-(trifluoromethyl)phenyl]furo[2,3-b]pyridine-2-carboxamide] the IC50 was greater than 2 µM.
In the case of `CSc1nc(N)nc(N[C@@H](C)c2nc3ccc(C(F)(F)F)cc3[nH]2)c1C#N` [Example 107, 2-amino-4-(methylthio)-6-({(1S)-1-[6-(trifluoromethyl)-1H-benzimidazol-2-yl]ethyl}amino)pyrimidine-5-carbonitrile], the IC50 is reported as greater than 2 µM.
`CCOc1nc(N)nc(N[C@@H](CCCCN(C)C)C(=O)Nc2cccc(C(F)(F)F)c2)c1C#N` [Example 156, N~2~-[2-amino-5-cyano-6-(ethyloxy)pyrimidin-4-yl]-N~6~,N~6~-dimethyl-N-[3-(trifluoromethyl)phenyl]-L-lysinamide] was tested, and the IC50 was greater than 2 µM.
With `N#Cc1cnc(N2CCOCC2)nc1NCC(=O)Nc1cccc(C(F)(F)F)c1` [Example 76] the IC50 was greater than 2 µM.
Compound `CCOc1nc(N)nc(N[C@@H](COC(C)=O)C(=O)Nc2cccc(C(F)(F)F)c2)c1C#N` [Example 164, (2S)-2-{[2-amino-5-cyano-6-(ethyloxy)pyrimidin-4-yl]amino}-3-oxo-3-{[3-(trifluoromethyl)phenyl]amino}propyl acetate] has an IC50 greater than 2 µM.
`CCCOc1nc(N)nc(N(C)[C@@H](C)C(=O)Nc2cccc(C(F)(F)F)c2)c1C#N` [Example 120, N^2-[2-amino-5-cyano-6-(propyloxy)pyrimidin-4-yl]-N^2-methyl-N-[3-(trifluoromethyl)phenyl]-L-alaninamide] gave an IC50 greater than 2 µM.
For `CCOc1nc(N)nc(N[C@@H](C)C(=O)Nc2cc(C(=O)NCCCN3CCN(C)CC3)cc(C(F)(F)F)c2)c1C#N` [Example 161], the IC50 was greater than 2 µM.
`CCOc1nc(N)nc(N[C@@H](CCC[N+](C)(C)C)C(=O)Nc2cccc(C(F)(F)F)c2)c1C#N` [Example 169, N-((4S)-4-{[2-amino-5-cyano-6-(ethyloxy)pyrimidin-4-yl]amino}-5-oxo-5-{[3-(trifluoromethyl)phenyl]amino}pentyl)-N,N-dimethylmethanaminium] was tested, and the IC50 was greater than 2 µM.
Work on `CCOc1nc(N)nc(N[C@@H](C)C(=O)Nc2cc(C(=O)NCCN3CCOCC3)cc(C(F)(F)F)c2)c1C#N` [Example 159, 3-({N-[2-amino-5-cyano-6-(ethyloxy)pyrimidin-4-yl]-L-alanyl}amino)-N-(2-morpholin-4-ylethyl)-5-(trifluoromethyl)benzamide] yielded an IC50 greater than 2 µM.
Work on `CSc1nc(N)nc(SCc2nc3ccc(C(F)(F)F)cc3[nH]2)c1C#N` [Example 63, 2-amino-4-(methylthio)-6-({[6-(trifluoromethyl)-1H-benzimidazol-2-yl]methyl}thio)pyrimidine-5-carbonitrile] yielded an IC50 of 0.5 to 2 µM.
For `CSc1nc(N)nc(N[C@@H](C)C(=O)Nc2cc(C(F)(F)F)ccc2Cl)c1C#N` [Example 80, N^2-[2-amino-5-cyano-6-(methylthio)pyrimidin-4-yl]-N-[2-5-(trifluoromethyl)phenyl]-L-alaninamide], the IC50 was greater than 2 µM.
`CSc1nc(NC(C)=O)nc(N(C(C)=O)[C@@H](CCCNC(C)=O)C(=O)Nc2cccc(C(F)(F)F)c2)c1C#N` [Example 166, N~2~,N~5~-diacetyl-N~2~-[2-(acetylamino)-5-cyano-6-(methylthio)pyrimidin-4-yl]-N-[3-(trifluoromethyl)phenyl]-L-ornithinamide] gave an IC50 greater than 2 µM.
Compound `CN(C)c1nc(N)nc(SCC(=O)Nc2cccc(C(F)(F)F)c2)c1C#N` [Example 66, 2-{[2-amino-5-cyano-6-(dimethylamino)pyrimidin-4-yl]thio}-N-[3-(trifluoromethyl)phenyl]acetamide] has an IC50 of 0.5 to 2 µM.
In the case of `C[C@H](Nc1nc(N)ncc1C#N)C(=O)Nc1cccc(C(F)(F)F)c1` [Example 90, N^2-(2-amino-5-cyanopyrimidin-4-yl)-N-[3-(trifluoromethyl)phenyl]-L-alaninamide], the IC50 is reported as greater than 2 µM.
With `CSc1nc(N)nc(SCC(=O)Nc2cc(C(F)(F)F)ccc2Cl)c1C#N` [Example 55, 2-{[2-amino-5-cyano-6-(methylthio)pyrimidin-4-yl]thio}-N-[2-chloro-5-(trifluoromethyl)phenyl]acetamide] the IC50 was 0.5 to 2 µM.
Compound `CSc1nc(N)nc(OCC(=O)Nc2cccc(C(F)(F)F)c2)c1CO` [Example 56, 2-{[2-amino-5-(hydroxymethyl)-6-(methylthio)pyrimidin-4-yl]oxy}-N-[3-(trifluoromethyl)phenyl]acetamide] has an IC50 of 0.5 to 2 µM.
With `CSc1nc(N(C)C)nc(NCC(=O)Nc2cccc(C(F)(F)F)c2)c1C#N` [Example 71, N^2-[5-cyano-2-(dimethylamino)-6-(methylthio)pyrimidin-4-yl]-N-[3-(trifluoromethyl)phenyl]glycinamide] the IC50 was greater than 2 µM.
With `CSc1nc(N)nc(N[C@@H](C)C(=O)Nc2cccc([N+](=O)[O-])c2)c1C#N` [Example 113, N^2-[2-amino-5-cyano-6-(methylthio)pyrimidin-4-yl]-N-(3-nitrophenyl)-L-alaninamide] the IC50 was greater than 2 µM.
For `COc1nc(N)nc(N[C@@H](CCCNC(=O)OC(C)(C)C)C(=O)Nc2cccc(C(F)(F)F)c2)c1C#N` [Example 185, 1,1-dimethylethyl ((4S)-4-{[2-amino-5-cyano-6-(methyloxy)pyrimidin-4-yl]amino}-5-oxo-5-{[3-(trifluoromethyl)phenyl]amino}pentyl)carbamate], the IC50 was greater than 2 µM.
In the case of `COCCOC(=O)NCCC[C@H](Nc1nc(N)nc(SC)c1C#N)C(=O)Nc1cccc(C(F)(F)F)c1` [Example 126, 2-(methyloxy)ethyl ((4S)-4-{[2-amino-5-cyano-6-(methylthio)pyrimidin-4-yl]amino}-5-oxo-5-{[3-(trifluoromethyl)phenyl]amino}pentyl)carbamate], the IC50 is reported as greater than 2 µM.
With `CCOC(=O)CN(NC(=O)Nc1cccc(C(F)(F)F)c1)c1nc(N)nc(SC)c1C#N` [Example 95, ethyl[1-[2-amino-5-cyano-6-(methylthio)pyrimidin-4-yl]-2-({[3-(trifluoromethyl)phenyl]amino}carbonyl)hydrazino]acetate] the IC50 was greater than 2 µM.
`CNc1nc(N)nc(SCC(=O)Nc2cccc(C(F)(F)F)c2)c1C=O` [Example 45, 2-{[2-amino-5-formyl-6-(methylamino)pyrimidin-4-yl]thio}-N-[3-(trifluoromethyl)phenyl]acetamide] showed an IC50 of 0.05 to 0.5 µM.
`CSc1nc(N)nc(N(C)CC(=O)Nc2cccc(C(C)C)c2)c1C#N` [Example 110, N^2-[2-amino-5-cyano-6-(methylthio)pyrimidin-4-yl]-N^2-methyl-N-[3-(1-methylethyl)phenyl]glycinamide] gave an IC50 greater than 2 µM.
`CSc1nc(N)nc(N[C@@H](CCCNS(C)(=O)=O)C(=O)Nc2cccc(C(F)(F)F)c2)c1C#N` [Example 198, N~2~-[2-amino-5-cyano-6-(methylthio)pyrimidin-4-yl]-N~5~-(methylsulfonyl)-N-[3-(trifluoromethyl)phenyl]-L-ornithinamide] gave an IC50 greater than 2 µM.
With `CCOc1nc(N)nc(N[C@@H](CCC(=O)OC)C(=O)Nc2cccc(C(F)(F)F)c2)c1C#N` [Example 170, Methyl N~2~-[2-amino-5-cyano-6-(ethyloxy)pyrimidin-4-yl]-N-[3-(trifluoromethyl)phenyl]-L-alpha-glutaminate] the IC50 was greater than 2 µM.
`Nc1nc(SCC(=O)Nc2cccc(C(F)(F)F)c2)c(C=O)c(Sc2ccccc2)n1` [Example 51, 2-{[2-amino-5-formyl-6-(phenylthio)pyrimidin-4-yl]thio}-N-[3-(trifluoromethyl)phenyl]acetamide] was tested, and the IC50 was 0.05 to 0.5 µM.
`CSc1nc(N)nc(OCC(=O)Nc2cccc(C(F)(F)F)c2)n1` [Example 47, 2-{[4-amino-6-(methylthio)-1,3,5-triazin-2-yl]oxy}-N-[3-(trifluoromethyl)phenyl]acetamide] was tested, and the IC50 was 0.05 to 0.5 µM.
For `CSc1nc(N)nc(N[C@@H](C)C(=O)Nc2cccc(C(F)(F)F)c2)c1C#N` [Example 60, N^2-[2-amino-5-cyano-6-(methylthio)pyrimidin-4-yl]-N-[3-(trifluoromethyl)phenyl]-L-alaninamide], the IC50 was 0.5 to 2 µM.
`CSc1nc(N)nc(N[C@@H](CCCN2CCOCC2)C(=O)Nc2cccc(C(F)(F)F)c2)c1C#N` [Example 143, N~2~-[2-amino-5-cyano-6-(methylthio)pyrimidin-4-yl]-5-morpholin-4-yl-N-[3-(trifluoromethyl)phenyl]-L-norvalinamide] gave an IC50 of 0.05 to 0.5 µM.
In the case of `CSc1nc(N)nc(SCC(=O)Nc2cc(C(F)(F)F)ccc2N)c1C#N` [Example 62], the IC50 is reported as 0.5 to 2 µM.
Compound `CCOc1nc(N)nc(N[C@@H](Cc2ccc(O)cc2)C(=O)Nc2cccc(C(F)(F)F)c2)c1C#N` [Example 154, Nalpha-[2-amino-5-cyano-6-(ethyloxy)pyrimidin-4-yl]-N-[3-(trifluoromethyl)phenyl]-L-tyrosinamide] has an IC50 greater than 2 µM.
